Read-outs that look alike come from different tables or passages of the source.
Legend:
male mice SPF-ICR [1] = assay: Acute toxicity test (1), intraperitoneal; details: mouse, in vivo
Procedure: To male mice SPF-ICR five weeks old (supplied by Japan Charles River Co.) were intraperitoneally administered PQQ·2Na, PQQ trimethyl ester, PQQ triallyl ester, OPQ, 1-methylpropyl OPQ, 2-methylthioethyl OPQ and benzyl OPQ at dosages of 40, 80, 160 and 200 mg per kg of body weight of mouce, respectively and they were bred for 14 days at 25° C. One group consisted of 8 mice. For administration, PQQ·2Na and OPQ and esters thereof were dissolved in physiological saline and PQQ trimethyl ester and PQQ triallyl ester were suspended in 1% Tween 80-containing physiological saline, respectively.

mice [2] = details: mouse, in vivo, ip
Procedure: One group consisted of 8 mice. For administration, PQQ·2Na and OPQ and esters thereof were dissolved in physiological saline and PQQ trimethyl ester and PQQ triallyl ester were suspended in 1% Tween 80-containing physiological saline, respectively.
PQQ·2Na, PQQ trimethyl ester, PQQ triallyl ester and OPQ and esters thereof were intraperitoneally administered to mice and they were bred in the same manner as in the above acute toxicity test. Urine of the mice was taken every day and glucose concentration was measured using clinical examination reagent (trademark: […] 2 manufactured by Miles.Sankyo Co.).

mice [3] = assay: Kidney Toxicity Determined by Blood Examination (2); assay type: in vivo; details: for Creatinine / Glucose / Urea nitrogen: mouse serum
Procedure: Dosages were 150, 400 and 1000 mg per kg of body weight of mouse.
After lapse of one day from the administration, the mice were fasted (with feeding only water) and then after 15 hours, blood was collected and serum was obtained therefrom. Glucose, urea nitrogen and creatinine in the serum were examined by clinical examination reagent (trademark: FUJI DRYCHEMSLIDE manufactured by Fuji Photo Film Co., Ltd.).

[4] = Superoxide scavenging activity (hypoxanthine-xanthine oxidase, DMPO spin trapping, ESR); assay type: biochemical; details: Example 1, Table 6; pH 7.3; read-out: O2^- scavenging activity IC50
Text: Activity of PQQ esters to scavenge superoxide (O2^-) produced in the system of hypoxanthinexanthine oxidase was examined by spin trapping method [using 5,5-dimethyl-l-pyrroline-N-oxide (hereinafter referred to as "DMPO") as a spin trapping agent] where electron spin resonance (hereinafter referred to as "ESR") was used.
Hypoxanthine+2O2 →2O2^- +uric acid (xanthine oxidase)
The following reagents were successively put in a test tube and stirred after addition of the hypoxanthine 7 to initiate the reaction and the reaction mixture was transferred to a quartz cell used for measurement of ESR.
Superoxide scavenging activity of OPQ and esters thereof was examined in the same manner as in Example 1.

[5] = system: Hydrocortisone-Induced Cataract of Hen's Eggs; assay: Effect on hydrocortisone-induced cataract of hen's eggs; assay type: in vivo, white leghorn (hen's eggs); details: 1 μmole at 3, 10 and 20 h after hydrocortisone; lens at 48 h
Procedure: Fertilized eggs of white leghorn were incubated in an incubator at a temperature of 37° C. and 70% in humidity. The day on which the incubation was started was taken to be one day old. […] eggs of 15 day old were prepared and divided into 7 groups, each of which included 5 eggs (A-G). A small hole was bored through the eggshell above air chamber of the eggs of groups B-G and 0.25 μmole (as 0.2 ml solution) of hydrocortisone sodium succinate was administered into the air chamber through the hole and then, the hole was sealed with a cellophane tape. To The eggs of groups C-G was administered 1 μmole of following compounds after 3, 10 and 20 hours from administration of hydrocortisone sodium succinate. That is, 0.2 ml of a solution of PQQ·2Na in distilled water was administered to the eggs of group C, 0.2 ml of a suspension of PQQ trimethyl ester in 1% Tween 80 solution was administered to the eggs of group D, 0.2 ml of a suspension of triallyl ester in 1% Tween 80 solution was administered to the eggs of group E, 0.2 ml of a solution of OPQ in 10 mM NaCO3 solution was administered to the eggs of group F, and 0.2 ml of a solution of methyl OPQ in 10 mM NaCO3 solution was administered to the eggs of group G.
Crystal lens was taken out after 48 hours from administration of hydrocortisone sodium succinate and degree of cataract was judged by the criteria according to the Nishigori et al method (Nishigori et al, "Investigative Ophthalmology & Visual Science", Vol. 25, page 1051, 1984).
5 The whole nucleus was hazed in white.

[6] = not told; for Membrane permeation constant: bovine, 960 min
Procedure: Permeability of various compounds through capsule of crystal bovine lens was examined in accordance with the method mentioned in "Crystal Lens and Biochemical Mechanism thereof" (pages 436-440) edited by Shuzo Iwata (Medical Aoi Publisher). Each compound dissolved in 10 mM HEPES buffer (containing 1% DMSO in the case of PQQ triesters) was put in an apparatus for measurement of membrane permeation constant and left to stand for 16 hours at 35° C. and then amount of the compound which migrated was measured by ultraviolet absorption (243 nm for PQQ·2Na and 255 nm for PQQ esters) to obtain membrane permeation constant.

mice [7] = assay: Kidney Toxicity Determined by Blood Examination (1); assay type: in vivo
Procedure: After lapse of one day from the administration, the mice were fasted (with feeding only water) and then after 18 hours, blood was collected and serum was obtained therefrom. Glucose, urea nitrogen and creatinine in the serum were examined by clinical examination reagent (trademark: FUJI DRYCHEMSLIDE manufactured by Fuji Photo Film Co., Ltd.).

[8] = Hydroxy radical scavenging activity (H2O2-(Fe^2+-DTPA), DMPO spin trapping, ESR); assay type: biochemical; details: Example 3, Table 8; pH 7.3; read-out: .OH scavenging activity IC50
Text: Activity of PQQ esters to scavenge hydroxy radical (·OH) produced in the system of H2 O2 --(Fe^2+ -DTPA) was examined by spin trapping method [using 5,5-dimethyl-1-pyrroline-N-oxide (hereinafter referred to as "DMPO") as a spin trapping agent] where electron spin resonance (hereinafter referred to as "ESR") was used. DTPA means diethylenetriamine-pentaacetic acid.
H2 O2 +Fe^2 -DTPA complex→·OH+OH^-
The following reagents were successively put in a test tube and stirred after addition of H2 O2 6 to initiate the reaction and the reaction mixture was transferred to a quartz cell used for measurement of ESR.
Hydroxy radical scavenging activity of OPQ and esters thereof was examined in the same manner as in Example 3.

[9] = Acute Toxicity Test (2), intraperitoneal; assay type: in vivo; details: mouse, in vivo, ip
Procedure: (§1) To male mice SPF-ICR five weeks old (supplied by Japan Charles River Co.) were intraperitoneally administered PQQ triallyl ester at dosages of 40, 80, 160, 200, 400 and 800 mg per kg of body weight of mouse, respectively and they were bred for 14 days at 25° C. One group consisted of 8 mice. For administration, PQQ triallyl ester was suspended in 1% Tween 80-containing physiological saline.

male mice SPF-ICR [10] = assay: Acute Toxicity Test (2), intraperitoneal; assay type: in vivo; details: 8 mice per group, 14 days
Procedure: as §1

COC(=O)c1cc(C(=O)OC)c2c(n1)C(=O)C(=O)c1cc(C(=O)OC)[nH]c1-2 [PQQ trimethyl ester]
mice died (male mice SPF-ICR [1]): no mice died | glucose detected in urine (mice [2]): no glucose was detected in urine | glucose in urine (mice [2]; 20 mg/kg): - | glucose in urine (mice [2]; 40 mg/kg): - | glucose in urine (mice [2]; 80 mg/kg): - | glucose in urine (mice [2]; 160 mg/kg): - | glucose in urine (mice [2]; 200 mg/kg): - | glucose in urine (mice [2]; 400 mg/kg): - | glucose in urine (mice [2]; 1000 mg/kg): - | Creatinine (mice [3]; 150 mg/kg): 0.85 ± 0.08 mg/dL | Glucose (mice [3]; 150 mg/kg): 154 ± 23 mg/dL | Urea nitrogen (mice [3]; 150 mg/kg): 23 ± 2 mg/dL | Creatinine (mice [3]; 400 mg/kg): 0.73 ± 0.05 mg/dL | Glucose (mice [3]; 400 mg/kg): 117 ± 21 mg/dL | Urea nitrogen (mice [3]; 400 mg/kg): 20 ± 2 mg/dL | Creatinine (mice [3]; 1000 mg/kg): 0.73 ± 0.05 mg/dL | Glucose (mice [3]; 1000 mg/kg): 125 ± 17 mg/dL | Urea nitrogen (mice [3]; 1000 mg/kg): 17 ± 4 mg/dL | kidney toxicity (mice [3]; mouse, in vivo, 1000 mg/kg): No kidney toxicity was recognized | IC50 [4]: 18.5 nM | Judgement 1 (No haze was seen in crystal lens), eggs [5]: 1/5 | Judgement 3 (Clear ring of white haze was seen in crystal lens), eggs [5]: 1/5 | Judgement 4 ~ 5 (white haze of pinhole size in nucleus ~ whole nucleus hazed in white), eggs [5]: 3/5 | Membrane permeation constant [6]: 1.41 ± 0.48 10 ^-7 cm^2 · sec^-1 | membrane permeation constant relative to that of PQQ.2Na [6]: about twice

O=C(O)c1cc(C(=O)O)c2c(n1)C(=O)C(=O)c1cc(C(=O)O)[nH]c1-2 [PQQ.2Na, reference compound]
mice died (male mice SPF-ICR [1]; ip, 40 mg/kg): No mice died | mice died (male mice SPF-ICR [1]; ip, 80 mg/kg): five mice died | mice died (male mice SPF-ICR [1]; ip, 160 mg/kg): eight mice all died | mice died (male mice SPF-ICR [1]; ip, 200 mg/kg): eight mice all died | glucose detected in urine (mice [2]): glucose was detected in urine | glucose in urine (mice [2]; 20 mg/kg): - | glucose in urine (mice [2]; 40 mg/kg): - | glucose in urine (mice [2]; 80 mg/kg): - | contents of glucose, urea nitrogen and creatinine in serum (mice [7]; mouse, in vivo): Sharp reduction of glucose and much increase of urea nitrogen and creatinine | kidney toxicity (mice [7]; mouse, in vivo): kidney toxicity was recognized | Creatinine (mice [7]; mouse, in vivo, 20 mg/kg): 0.8 ± 0.1 mg/dL | Glucose (mice [7]; mouse, in vivo, 20 mg/kg): 70 ± 13 mg/dL | Urea nitrogen (mice [7]; mouse, in vivo, 20 mg/kg): 25 ± 3 mg/dL | Creatinine (mice [7]; mouse, in vivo, 40 mg/kg): 2.3 ± 1.0 mg/dL | Glucose (mice [7]; mouse, in vivo, 40 mg/kg): 60 ± 12 mg/dL | Urea nitrogen (mice [7]; mouse, in vivo, 40 mg/kg): 110 ± 38 mg/dL | Creatinine (mice [7]; mouse, in vivo, 80 mg/kg): 3.4 ± 0.4 mg/dL | Glucose (mice [7]; mouse, in vivo, 80 mg/kg): 57 ± 15 mg/dL | Urea nitrogen (mice [7]; mouse, in vivo, 80 mg/kg): 130 ± 18 mg/dL | Creatinine (mice [7]; mouse, in vivo, 160 mg/kg): 4.1 ± 0.2 mg/dL | Glucose (mice [7]; mouse, in vivo, 160 mg/kg): 35 ± 7 mg/dL | Urea nitrogen (mice [7]; mouse, in vivo, 160 mg/kg): 139 ± 3 mg/dL | IC50 [4]: 38.3 nM | IC50 [8]: 64000 nM | Judgement 1 (No haze was seen in crystal lens), eggs [5]: 1/5 | Judgement 2 (Slight opaque ring was seen in crystal lens), eggs [5]: 2/5 | Judgement 4 ~ 5 (white haze of pinhole size in nucleus ~ whole nucleus hazed in white), eggs [5]: 2/5 | Membrane permeation constant [6]: 0.68 ± 0.36 10 ^-7 cm^2 · sec^-1

C=CCOC(=O)c1cc(C(=O)OCC=C)c2c(n1)C(=O)C(=O)c1cc(C(=O)OCC=C)[nH]c1-2 [PQQ triallyl ester]
mice died (male mice SPF-ICR [1]): no mice died | LD50 at 336 h [9]: ~500 mg/kg | mice died (male mice SPF-ICR [10]; i.p. 200 mg/kg or less): No mice died | mice died (male mice SPF-ICR [10]; i.p. 400 mg/kg): three mice died | mice died (male mice SPF-ICR [10]; i.p. 800 mg/kg): eight mice all died | glucose in urine (mice [2]; 20 mg/kg): - | glucose in urine (mice [2]; 40 mg/kg): - | glucose in urine (mice [2]; 80 mg/kg): - | glucose in urine (mice [2]; 160 mg/kg): - | glucose in urine (mice [2]; 200 mg/kg): - | glucose in urine (mice [2]; 400 mg/kg): - | glucose in urine (mice [2]; 1000 mg/kg): - | contents of glucose, urea nitrogen and creatinine in serum (mice [7]; mice, summary of Table 3): nearly the same as those in the case of administration of no compounds | Creatinine (mice [7]; mouse serum, 40 mg/kg): 0.3 ± 0.1 mg/dL | Glucose (mice [7]; mouse serum, 40 mg/kg): 42 ± 6 mg/dL | Urea nitrogen (mice [7]; mouse serum, 40 mg/kg): 11 ± 4 mg/dL | Creatinine (mice [7]; mouse serum, 90 mg/kg): 0.2 ± 0.1 mg/dL | Glucose (mice [7]; mouse serum, 90 mg/kg): 47 ± 15 mg/dL | Urea nitrogen (mice [7]; mouse serum, 90 mg/kg): 12 ± 3 mg/dL | Creatinine (mice [7]; mouse serum, 160 mg/kg): 0.1 ± 0.1 mg/dL | Glucose (mice [7]; mouse serum, 160 mg/kg): 59 ± 16 mg/dL | Urea nitrogen (mice [7]; mouse serum, 160 mg/kg): 10 ± 1 mg/dL | Creatinine (mice [7]; mouse serum, 200 mg/kg): 0.1 ± 0.1 mg/dL | Glucose (mice [7]; mouse serum, 200 mg/kg): 76 ± 6 mg/dL | Urea nitrogen (mice [7]; mouse serum, 200 mg/kg): 9 ± 1 mg/dL | kidney toxicity (mice [7]; mouse, in vivo): kidney toxicity was not seen | IC50 [4]: 12.4 nM | IC50 [8]: 42000 nM | Judgement 1 (No haze was seen in crystal lens), eggs [5]: 2/5 | Judgement 2 (Slight opaque ring was seen in crystal lens), eggs [5]: 1/5 | Judgement 3 (Clear ring of white haze was seen in crystal lens), eggs [5]: 1/5 | Judgement 4 ~ 5 (white haze of pinhole size in nucleus ~ whole nucleus hazed in white), eggs [5]: 1/5 | Membrane permeation constant [6]: 2.42 ± 0.60 10 ^-7 cm^2 · sec^-1
